The target in one assay is T1, human recombinant PARP2 (Homo sapiens, UniProt Q9UGN5).
T1 construct: made in house
The assay can be described thus: PARP2 activity by inclusion of α-[32P]-NAD+ in poly(ADP-ribose). It is filed as biochemical. The following applies: in the presence of 1 mM compound; read-out: Residual activity of PARP2. The procedure:
Since it has previously been shown that nucleoside derivatives can inhibit enzymes of the PARP family, we also checked whether the studied compounds were able to inhibit the enzymes PARP1 and PARP2. […] Thus, when using our compounds, one cannot expect side effects from PARP1/2.
Purified human recombinant PARP1/2 [65] and [^32P] NAD^+ [27] were prepared as described earlier. The activity of PARP1/2 was evaluated by the rate of incorporation of the radioactive label into the acid-insoluble reaction product—PAR as described previously.

For assay [1], the target named is T2, purified recombinant human Tdp1 (Homo sapiens, UniProt Q9NUW8).
T2 construct: made in house
T2 sequence (Q9NUW8 whole entry): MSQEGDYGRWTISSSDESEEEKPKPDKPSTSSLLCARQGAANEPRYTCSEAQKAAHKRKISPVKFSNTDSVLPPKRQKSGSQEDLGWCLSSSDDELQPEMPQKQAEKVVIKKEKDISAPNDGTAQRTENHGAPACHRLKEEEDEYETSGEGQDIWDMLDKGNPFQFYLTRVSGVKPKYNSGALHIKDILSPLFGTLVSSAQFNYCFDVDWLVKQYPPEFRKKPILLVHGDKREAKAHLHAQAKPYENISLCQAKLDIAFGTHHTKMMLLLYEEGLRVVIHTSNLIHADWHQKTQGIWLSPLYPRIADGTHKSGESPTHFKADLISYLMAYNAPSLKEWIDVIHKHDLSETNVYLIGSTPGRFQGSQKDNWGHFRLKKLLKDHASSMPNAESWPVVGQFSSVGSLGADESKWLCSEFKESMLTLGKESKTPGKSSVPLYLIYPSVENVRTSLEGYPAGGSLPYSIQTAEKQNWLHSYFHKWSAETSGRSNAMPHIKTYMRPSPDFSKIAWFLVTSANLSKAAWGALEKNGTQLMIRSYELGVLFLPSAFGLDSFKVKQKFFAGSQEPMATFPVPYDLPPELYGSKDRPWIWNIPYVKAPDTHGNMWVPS
The assay can be described thus: Real-time detection of Tdp1 activity (removal of BHQ1 from a 5′-FAM 16-nt oligonucleotide, fluorescence). It is filed as biochemical. The following applies: 1.5 nM Tdp1, 50 nM oligonucleotide, 25 °C, three independent experiments. How it is done: In this work, four natural nucleosides (1-4) and […] aromatic lipophilic derivatives of purine nucleosides (5a-f, 6a-d) were tested for Tdp1 activity. The used test system was based on the enzyme’s ability to remove Black Hole Quencher 1 (BHQ1) from the 3′ end of a 5′ FAM 16-nt oligonucleotide. As a result, an increase in FAM fluorescence was detected and the obtained kinetic curves were used to calculate the IC50 parameter (the concentration of the inhibitor at which the enzyme activity is reduced by half). We have found potent Tdp1 inhibitors with IC50 in the range from 0.3 to 7 μM (Table 1).
Purified human recombinant Tdp1 was prepared as described earlier. Real-time detection of Tdp1 activity was reported in our previous work. The approach consists of a fluorescence intensity measurement of the reaction of quencher removal from the fluorophore-quencher coupled DNA oligonucleotide catalyzed by Tdp1 in the presence of the inhibitor (the control samples contained 1% DMSO). The biosensor was single-stranded oligonucleotide (5′-[FAM] AAC GTC AGGGTC TTC C [BHQ]-3′) containing fluorophore at the 5′ end (5,6-FAM) and a Black Hole Quencher 1 (BHQ) at the 3′ end, and was synthesized in the Laboratory of nucleic acid chemistry at the Institute of Chemical Biology and Fundamental Medicine SB RAS, Novosibirsk, Russia. The reactions were incubated at a constant temperature 25 °C in a POLARstar OPTIMA fluorimeter, BMG LABTECH, GmbH, to measure fluorescence every 55 s (Ex485/Em520 nm) during the linear phase (here, the data are from 0 to 8 min). […] The IC50 values were determined using a six-point concentration response curve in three independent experiments and calculated using MARS Data Analysis 2.0 (BMG LABTECH).

The test system of assay [2] is mice ascitic Krebs-2 carcinoma. Put plainly: Antitumor effect of topotecan with compounds in vivo, ascitic Krebs-2 carcinoma model. The note with it: C57Bl/6 mice; for Tumor mass (ascites weight) and number of tumor cells, combination with Tpc compared to only Tpc: Tpc 1 mg/kg + compound 100 mg/kg i/p once on day 4, 6d p = 0.0018. From the text: The effect of compounds 5f, 6c and 6d on the effectiveness of Tpc was studied in vivo on a mice ascitic Krebs-2 carcinoma model. Krebs-2 carcinoma can be transplanted into mice of various genetic constitutions. […] This model combines the advantages of in vitro and in vivo approaches to study the cytotoxic effects of compounds, since ascites cells grow in the environment of the body (in vivo), and intraperitoneal administration of the drug ensures its direct contact with tumor cells (in vitro), bypassing absorption, delivery to the tumor, possible transformations, etc.
During the experiment, mice were injected intraperitoneally with 2 × 10^6 ascites cells, after that a liquid ascites tumor grew at the site of inoculation.
The effect of drugs on the tumor was assessed at the end of the experiment by the weight of the ascitic tumor (the difference in the weight of the mouse with the tumor and after tumor removal), as well as by the number of tumor cells in the ascites.
Three- to four-month-old male and female C57Bl/6 mice (19–21 g) from the breeding colony of the Institute of Cytology and Genetics, SB RAS, Novosibirsk, Russia, were used in the study. The animals were kept on sawdust in plastic cages of 5–7 mice per cage with free access to ground food (“Laboratorkorm”, Moscow, Russia) and tap water. All procedures with the mice were performed in accordance with the international rules for experiments on animals [European Communities Directive (86/609 EEC)].
The experimental tumor model was transplantable Krebs-2 carcinoma obtained from the cell depository of the Institute of Cytology and Genetics SB RAS (Novosibirsk, Russia) and was maintained in mice as a transplanted tumor. Krebs-2 was obtained from epithelial cells of the abdominal wall of a mouse. Krebs-2 carcinoma is nonspecific in its host requirements and can be grafted into mice with any genetic context. With intraperitoneal inoculation, it forms an ascites form.
The antitumor effect was assessed by the weight of the ascites and by the number of tumor cells in ascites. The weight of Krebs-2 ascites was assessed by the difference in the weight of mice before and after the removal of ascites. The number of tumor cells in ascites was determined using a hemocytometer Goryaev camera. In autopsied mice, the weights of liver, lung, heart, kidneys, and spleen were assessed as well as the tumor and body weights.
The animals were treated once in total dose of Tpc 1 mg/kg and Tdp1 inhibitor (5f, 6c or 6d) 100 mg/kg. We started the treatment on the fourth day after the tumor was inoculated, with the expectation that it had just begun to form. […] The animals were euthanized eight days after the transplantation and the compound effect on mice was evaluated by measuring the tumor weight and number of tumor cells in ascites.

“Also recorded” adds a separate entry of the source.

T1 sequence (Q9UGN5 whole entry): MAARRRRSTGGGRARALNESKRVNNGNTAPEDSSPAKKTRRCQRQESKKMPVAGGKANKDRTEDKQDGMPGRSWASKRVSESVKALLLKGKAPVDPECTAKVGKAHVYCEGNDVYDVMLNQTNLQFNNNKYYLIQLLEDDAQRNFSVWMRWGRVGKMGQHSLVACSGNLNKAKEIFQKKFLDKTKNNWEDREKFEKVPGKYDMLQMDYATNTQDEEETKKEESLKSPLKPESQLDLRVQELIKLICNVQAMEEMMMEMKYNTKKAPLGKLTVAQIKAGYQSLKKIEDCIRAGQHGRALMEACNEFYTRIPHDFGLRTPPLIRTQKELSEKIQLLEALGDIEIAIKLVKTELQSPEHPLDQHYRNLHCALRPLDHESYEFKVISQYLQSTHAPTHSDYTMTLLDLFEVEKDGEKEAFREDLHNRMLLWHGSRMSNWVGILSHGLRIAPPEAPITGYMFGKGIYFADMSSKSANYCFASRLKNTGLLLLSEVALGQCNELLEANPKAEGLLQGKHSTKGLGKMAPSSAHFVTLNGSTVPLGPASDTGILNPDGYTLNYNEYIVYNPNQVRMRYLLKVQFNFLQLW

As to `O[C@@H]1[C@H](O)[C@@H](COC(c2ccccc2)(c2ccccc2)c2ccccc2)O[C@H]1n1cnc2c(NC(c3ccccc3)(c3ccccc3)c3ccccc3)ncnc21` [compound 5f], at human recombinant PARP2, the remaining activity at 1000 µM stood at 113 ± 18%. Moreover, in assay [1], the IC50 (usually the midpoint of a concentration-inhibition curve) is 300 ± 60 nM. Besides, in assay [2], the “Tumor mass (ascites weight) and number of tumor cells, combination with Tpc compared to only Tpc” value (shortened to “Tumor mass … compared to only Tpc”) is recorded as “no sensitizing effect; also recorded: did not result in a reliable decrease”.

On to `O=C(OC[C@H]1O[C@@H](n2cnc3c(Cl)nc(F)nc32)[C@H](OC(=O)c2ccccc2)[C@@H]1OC(=O)c1ccccc1)c1ccccc1` [compound 6c, 2-Fluoro-6-chloro-9-(2,3,5-tri-O-benzoyl-β-D-ribofuranosyl)purine], for which the remaining activity at 1000 µM at human recombinant PARP2 was determined as 80 ± 20%. Further, the IC50 in assay [1] was determined as 1000 ± 200 nM. The “Tumor mass … compared to only Tpc” value in assay [2] is recorded as “did not obtain the sensitizing effect; also recorded: did not result in a reliable decrease”.

On to `O=C(OC[C@H]1O[C@@H](n2cnc3c(Cl)nc(Cl)nc32)[C@H](OC(=O)c2ccccc2)[C@@H]1OC(=O)c1ccccc1)c1ccccc1` [compound 6d, 2,6-dichloro-9-(2,3,5-tri-O-benzoyl-β-D-ribofuranosyl)purine], for which the remaining activity at 1000 µM on human recombinant PARP2 was determined as 86 ± 9%. Besides, the concentration for half-maximal inhibition (IC50) in assay [1] came out at 820 ± 20 nM. In addition, the “Tumor mass … compared to only Tpc” value in assay [2] is “significant decrease; also recorded: synergistic decrease of tumor size”. Besides, the “Tumor mass (ascites weight) and number of tumor cells, compound alone” value in assay [2] (compound 100 mg/kg i/p once on day 4, 100 mg/kg) is on record as “did not affect this parameter; also recorded: did not affect tumor growth”.

These data come from publication PMC9822400, “The Lipophilic Purine Nucleoside—Tdp1 Inhibitor—Enhances DNA Damage Induced by Topotecan In Vitro and Potentiates the Antitumor Effect of Topotecan In Vivo” (Molecules, 2022).
